These results are taken from patent US11337916B2, “Myrciaria dubia fruit extracts rich in organic acids, cosmetic compositions comprising same and cosmetic uses thereof” (ISP INVESTMENTS LLC, priority 2018, dated 2022).

Assay [1] relates to PFKFB3 (6-phosphofructo-2-kinase/fructose-2,6-biphosphatase 3). The assay can be described thus: PFKFB3 expression on reconstructed epidermis in tired condition (immunofluorescence). Type of assay: cell-based, human. The conditions noted are these: rotenone alone. The text has this:
The aim of this study is to determine the level of expression of PFKFB3 (6-phosphofructo-2-kinase/fructose-2,6-biphosphatase 3) in a model of “tired” reconstructed human skin.
PFKFB3 is involved in the glycolysis process. It is an inducible enzyme that is expressed by the active epithelial cells of the epidermis. It enables the activation of the enzyme PFK-1 (phosphofructokinase-1), which limits this glycolysis process.
To obtain “tired” skin, this is reconstructed using adult donor keratinocytes and a respiratory chain inhibitor (rotenone) to create a lack of energy (see example 6). These cultures are treated during reconstruction with 0.1% E1 Myrciaria extract (volume/volume), i.e. diluted 1/1000th in the culture medium.
Protocol: On day 12 of epidermal reconstruction, rotenone is added to the culture medium. A control condition is maintained without adding rotenone but changing the culture medium anyway. After 3 h incubation with the inhibitor, the medium is changed to a new medium containing 0.1% E1 Myrciaria extract and the epidermises are incubated again for 48 h. […]
For staining, the cuts are dewaxed by xylene and ethanol baths and then rinsed. […] The cuts are then examined under an Epi-fluorescence microscope (Zeiss Axiovert 200M microscope). A quantification of the fluorescence, using Volocity® image analysis software (PerkinElmer, Inc.), is performed from the obtained photographs.

For another assay, the system named is reconstructed epidermis. Put plainly: Morphology of reconstructed epidermis in tired condition (rotenone), haematoxylin-eosin staining. To be noted: rotenone added on day 12 of reconstruction, 3 h incubation. Type of assay: cell-based, human. The text has this:
The aim of this study is to create a model of reconstructed “tired” human skin. To do this, the skin is reconstructed using adult donor keratinocytes and a respiratory chain inhibitor (rotenone) to create a lack of energy.
The use of a respiratory chain inhibitor such as rotenone creates mitochondrial dysfunction, including ATP depletion. Therefore, lack of cellular energy was equated in our model to a state of cellular fatigue (Han G et al, The mitochondrial complex I inhibitor rotenone induces endoplasmic reticulum stress and activation of GSK-3β in cultured rat retinal cells, Invest Ophthalmol Vis Sci. 31; 55(9):5616-28, 2014). These cultures are treated during the reconstruction with 0.1% E1 Myrciaria extract (volume/volume), i.e. diluted 1/1000th or 1% (volume/volume), i.e. diluted 1/100th in the culture medium.
Protocol: On day 12 of epidermal reconstruction, rotenone is added to the culture medium. A control condition is maintained without adding rotenone but changing the culture medium anyway. After 3 h incubation with the inhibitor, the medium is changed to a new medium containing 0.1% E1 Myrciaria extract and the epidermis is incubated again for 48 h. The placebo condition contains PBS (phosphate buffer saline) in the culture medium. The morphology of the skin is then observed by a Haematoxylin-Eosin (HE) staining. […]

In a further assay the test system is creatine kinase. The assay can be described thus: Creatine kinase activity on "tired" dermal fibroblast cultures. Type of assay: cell-based. To be noted: 0.1% E1 extract or vitamin C at 4 μg/mL, two days of treatment. As for the experimental part:
The aim of this study is to determine the level of creatine kinase activity in dermal fibroblast cultures. The function of this enzyme is to catalyse the conversion of creatine to phosphocreatine, thus providing a rapidly usable energy reserve. This activity measurement is performed on cultures of “tired” dermal fibroblasts treated with 0.1% E1 Myrciaria extract (volume/volume), i.e. diluted 1/1000th in the culture medium. Protocol: Dermal fibroblast cultures are “tired” by a few replications (cells used between passes 15 and 20) and are fed with a nutrient-poor medium (without glucose) for 3 days. These cultures are treated with 0.1% E1 Myrciaria extract, or with vitamin C at 4 μg/mL as a positive control, from the second day of stress and for the remaining two days of stress. Two days after the start of treatment, a measurement of creatine kinase activity is performed using a kit (Abcam—ref: ab155901). For this purpose, the fibroblasts are detached with the CK buffer contained in the kit, recovered and centrifuged at 4000 g for 5 min at 4° C. The activity is then measured for each sample according to the kit protocol. Kinetics are obtained by a colorimetric reading with the Synergy 2 spectrometer (Biotek) coupled to Gen5 software.

For the molecule `C=C(C)[C@H]1Cc2c(ccc3c2O[C@@H]2COc4cc(OC)c(OC)cc4[C@@H]2C3=O)O1` [rotenone], in assay [1], the “PFKFB3 expression change compared to unstressed epidermises” value is recorded as −20%. For the same molecule, in the assay with reconstructed epidermis, the “morphology of reconstructed epidermis versus control (HE staining)” value was “thinner epidermis than the control and a more damaged basal layer”. Take `O=C1O[C@H]([C@@H](O)CO)C(O)=C1O` [vitamin C]: the “creatine kinase activity increase compared to untreated "tired" cells” value with creatine kinase was “+44%”.
